Legend:
[1] = test system: breast cancer cell line MCF-7; experiment: Activity against breast cancer cell line MCF-7; type: cell-based; conditions: Homo sapiens, MCF7, read-out: IC50 against MCF-7
[2] = test system: endothelial human sapiens cell line EA.hy926; experiment: Activity against endothelial cell line EA.hy926; type: cell-based; conditions: EA.hy 926, read-out: IC50 against EA.hy926

CCc1cc(=O)n2c(=O)/c(=C/c3ccc(-c4ccc(C)cc4)cc3)sc2n1 [Compound 15, (Z)-7-ethyl-2-((4′-methyl-[1,1′-biphenyl]-4-yl)methylene)-5H-thiazolo[3,2-a]pyrimidine-3,5(2H)-dione]
IC50 [1]: > 250 µM | IC50 [2]: > 250 µM

From paper PMC9049071 (RSC Advances, 2020)
